From PubChem BioAssay (NCI)
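Test compounds were applied to cells in 96-well plates for 48 hours at 5 doses. Abbreviation: GI50, concentration required for 50% inhibition of growth. Definition used: TGI = concentration required for complete inhibition of growth.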

Tests used:
Assay in all cases: NCI tumour cell line growth inhibition, 48 h
ACHN renal = tested on: ACHN renal
DMS 273 small cell lung = tested on: DMS 273 small cell lung
KM12 colon = tested on: KM12 colon
M19-MEL melanoma = tested on: M19-MEL melanoma
OVCAR-5 ovarian = tested on: OVCAR-5 ovarian
SF-268 CNS = tested on: SF-268 CNS
SN12C renal = tested on: SN12C renal
SNB-19 CNS = tested on: SNB-19 CNS
A549 NSCLC = tested on: A549 NSCLC
MCF7 breast = tested on: MCF7 breast
T-47D breast = tested on: T-47D breast

SMILES	TGI (ACHN renal)	TGI (DMS 273 small cell lung)	TGI (KM12 colon)	TGI (M19-MEL melanoma)	TGI (OVCAR-5 ovarian)	TGI (SF-268 CNS)	TGI (SN12C renal)	TGI (SNB-19 CNS)	TGI (A549 NSCLC)	TGI (MCF7 breast)	TGI (T-47D breast)	GI50 (A549 NSCLC)	GI50 (ACHN renal)	GI50 (KM12 colon)	GI50 (MCF7 breast)	GI50 (OVCAR-5 ovarian)	GI50 (SF-268 CNS)	GI50 (SN12C renal)	GI50 (SNB-19 CNS)	GI50 (T-47D breast)
O=C1NC2OC(CO)C(O)C(O1)C2O (stereo not given)	> 100 µM	> 100 µM	> 100 µM	> 100 µM	> 100 µM	> 100 µM	> 100 µM	> 100 µM												
Cc1cccc(C)c1NC(=O)C(=O)C1C(=O)NC(=O)NC1=O	> 100 µM	> 100 µM	> 100 µM	> 100 µM	> 100 µM	> 100 µM	> 100 µM	> 100 µM	> 100 µM											
CSC(C1c2ccccc2N(c2ccc(C)cc2)C2=NC(=O)N(C)C(=O)C21Cl)S(=O)(=O)c1ccc(C)cc1 (stereo not given)	> 100 µM	47.9 µM		69.2 µM	83.2 µM	62.5 µM	58.5 µM	85.2 µM	> 100 µM											
COc1c(Br)cc(CC(N)=O)c(O)c1Br	> 100 µM	> 100 µM	> 100 µM	> 100 µM	> 100 µM	> 100 µM	> 100 µM	> 100 µM	> 100 µM											
CCOn1c(C2(CC3CCN(C(=O)c4ccccc4)CC3)OCCO2)cc2ccccc21	27.9 µM		30.9 µM		37.4 µM	35 µM	30.9 µM	30.9 µM	32.4 µM	30 µM	56.2 µM									
NC(N)=NS(=O)(=O)c1ccc(NC(=O)c2ccc3nc4ccccc4c(Nc4ccc(S(=O)(=O)N=C(N)N)cc4)c3c2)cc1	> 100 µM		> 100 µM		> 100 µM	> 100 µM	> 100 µM	> 100 µM	> 100 µM	> 100 µM	> 100 µM									
Nc1c(C(=O)c2ccc(Cl)cc2)[nH]c(NCc2ccccc2)c1C(=S)Nc1ccccc1	4.71 µM		3.24 µM		9.16 µM	8.44 µM	17 µM	15.1 µM	4.87 µM	3.08 µM	65.1 µM									
COc1cc(CN2CCCCC2)cc2cc(C(=O)O)c(=O)oc12	> 100 µM		> 100 µM		> 100 µM	> 100 µM	> 100 µM	> 100 µM	> 100 µM	> 100 µM	> 100 µM									
CN(C)CCn1c(=O)c2ccc(NCCCN(C)CCCNc3ccc4c(=O)n(CCN(C)C)c(=O)n5c6ccc([N+](=O)[O-])cc6c(=O)c3c45)c3c(=O)c4cc([N+](=O)[O-])ccc4n(c1=O)c23	1.21 µM		0.27 µM		1.1 µM	0.733 µM	0.165 µM	0.193 µM	0.308 µM	0.608 µM	> 100 µM									
COC(=O)C1CC2(c3ccccc3)C(=O)c3ccccc3N2O1 (stereo not given)	> 100 µM	> 100 µM	> 100 µM	> 100 µM	> 100 µM	> 100 µM	> 100 µM	> 100 µM	> 100 µM											
O=c1c2ccccc2nc(Nc2cccc(Cl)c2)n1/N=C/C=C/c1ccccc1	> 100 µM		> 100 µM		> 100 µM	> 100 µM	> 100 µM	> 100 µM	> 100 µM	74.7 µM	> 100 µM									
CC1(C)C=C(S(=O)(=O)c2ccccc2)Oc2ccccc2O1	> 100 µM		> 100 µM		> 100 µM	> 100 µM	> 100 µM	> 100 µM	> 100 µM	> 100 µM	96.4 µM									
Nc1ccc(S(=O)(=O)Nc2nc3ccccc3nc2N2CCCCC2)cc1	> 100 µM		> 100 µM		> 100 µM	> 100 µM	> 100 µM	> 100 µM	> 100 µM	> 100 µM	> 100 µM									
Cn1c([O-])nc(-n2cc[n+](C)c2)cc1=O	> 100 µM		> 100 µM		> 100 µM	> 100 µM	> 100 µM	> 100 µM	> 100 µM	> 100 µM	> 100 µM									
COC1(OC)CCCCC2c3cccc(OC(C)=O)c3C21OC(C)=O (stereo not given)	> 100 µM	> 100 µM	> 100 µM	> 100 µM	> 100 µM	> 100 µM	> 100 µM	> 100 µM	> 100 µM											
O=C1C=CC(=O)c2c(O)c(NCCc3ccc(O)cc3)c(Cl)c(O)c21	> 10 µM		> 10 µM		> 10 µM	> 10 µM	> 10 µM	> 10 µM	> 10 µM	> 10 µM	> 10 µM									
O=C(Nc1cccc(O)c1)C(=O)C(C(=O)c1ccccc1F)C1OC(=O)c2ccccc21 (stereo not given)	> 100 µM	98.1 µM	71 µM	54.4 µM	> 100 µM	74.7 µM	> 100 µM	68 µM	> 100 µM											
CC1(CNCc2ccccc2)CC(CCc2ccccc2)N(C(=O)c2ccc([N+](=O)[O-])cc2)C1Cc1ccc(O)cc1 (stereo not given)	24.8 µM		36.2 µM		34 µM	27.6 µM	20.8 µM	29.1 µM	24.8 µM	19.2 µM	18.8 µM									

SMILES	TGI (ACHN renal)	TGI (DMS 273 small cell lung)	TGI (KM12 colon)	TGI (M19-MEL melanoma)	TGI (OVCAR-5 ovarian)	TGI (SF-268 CNS)	TGI (SN12C renal)	TGI (SNB-19 CNS)	TGI (A549 NSCLC)	TGI (MCF7 breast)	TGI (T-47D breast)	GI50 (A549 NSCLC)	GI50 (ACHN renal)	GI50 (KM12 colon)	GI50 (MCF7 breast)	GI50 (OVCAR-5 ovarian)	GI50 (SF-268 CNS)	GI50 (SN12C renal)	GI50 (SNB-19 CNS)	GI50 (T-47D breast)
CC(=S)N=Cc1c(O)cc(C)oc1=O	> 100 µM		> 100 µM		> 100 µM	> 100 µM	> 100 µM	> 100 µM	> 100 µM	> 100 µM	> 100 µM									
Cc1nc(C)c(Cc2ccccc2)o1	> 100 µM		> 100 µM		> 100 µM	> 100 µM	> 100 µM	> 100 µM	> 100 µM	> 100 µM	> 100 µM									
C=c1c(OC)c(OC)c(O)c2c1=c1cc([N+](=O)[O-])cc(OC)c1=N2	> 100 µM		> 100 µM		> 100 µM	> 100 µM	> 100 µM	> 100 µM	> 100 µM	> 100 µM	> 100 µM									
CCC(C)C(=O)OC1CC2(C)C(c3ccoc3)OC(=O)CC23OC2(C)OC34C(OC(=O)C(C)C)C3(O)C(OC(=O)C5(C)OC5C)C5(C)CC3(O)C(C)(C5CC(=O)OC)C14O2 (stereo not given)	> 100 µM		> 100 µM		> 100 µM	> 100 µM	> 100 µM	> 100 µM	> 100 µM	66.1 µM	> 100 µM									
O=C(Nc1ccccc1C(=O)NCCCO)/C(=C/c1ccccc1O)NC(=O)c1ccccc1	97.4 µM		> 100 µM		> 100 µM	> 100 µM	> 100 µM	40.8 µM	> 100 µM	> 100 µM	> 100 µM									
N#Cc1c(-c2ccc(F)cc2)nc(N/N=C/c2c[nH]c3ccccc23)nc1N1CCOCC1	30.7 µM		68.9 µM		74 µM	> 100 µM	> 100 µM	> 100 µM	69.9 µM	57.4 µM	40 µM	3.99 µM	2.24 µM	4.96 µM	4.56 µM	19.5 µM	17 µM	16.6 µM	21 µM	9.16 µM
O=C(O)C(CS)N=c1c2ccccc2n(O)c2ccccc12 (stereo not given)	> 100 µM	> 100 µM	> 100 µM	> 100 µM	> 100 µM	> 100 µM	> 100 µM	> 100 µM	> 100 µM											
CCCCN=C(NC#N)NCCCC	> 100 µM	> 100 µM	> 100 µM	> 100 µM	> 100 µM	> 100 µM	> 100 µM	> 100 µM	> 100 µM											
COC(=O)C1=Nc2c(C)nn(-c3ccccc3)c2N=C(c2ccc([N+](=O)[O-])cc2)C1	> 10 µM		> 10 µM		> 10 µM	> 10 µM	> 10 µM	> 10 µM	> 10 µM	> 10 µM	> 10 µM									
Brc1ccc2c(-c3csc(-c4c[nH]c5cc(Br)ccc45)n3)c[nH]c2c1	> 100 µM		25.1 µM		> 90.2 µM	> 100 µM	> 100 µM	58.2 µM	> 50.7 µM	> 100 µM	98.7 µM									
NC(N)=Nc1ncccc1[N+](=O)[O-]		> 100 µM	> 100 µM		> 100 µM	> 100 µM	> 100 µM	> 100 µM	> 100 µM	> 64.4 µM										
CCOC(=O)C1=C(OC(OCC)C(CC)[Se]c2ccccc2)CCCC1 (stereo not given)	82.2 µM	29.2 µM	> 100 µM	33 µM	67.7 µM	41.6 µM	34.1 µM	> 100 µM	> 100 µM											
COCC1OC(N2C(=O)NC(=O)[C@@H]3C=C4CCCCC4=C[C@@H]32)C(OC)C1OC (stereo not given in full)	> 100 µM		> 100 µM		> 100 µM	> 100 µM	> 100 µM	> 100 µM	> 100 µM	> 100 µM	> 100 µM									
O=C(O)C(CO)NC(=O)n1c2ccccc2c2ccccc21 (stereo not given)	> 100 µM	> 100 µM	> 100 µM	> 100 µM		> 100 µM	> 100 µM	> 100 µM	> 100 µM											
COC(=O)c1c/c(=N\NC(=O)CC(=O)Nc2ccccc2OC)c2ccccc2o1	> 100 µM	> 100 µM	> 100 µM	> 100 µM	> 100 µM	> 100 µM	> 100 µM	> 100 µM	> 100 µM											
COC(=O)/C(=N/NC(=O)C[N+](C)(C)C)C(C(=O)OC)C(=O)C(=O)Nc1ccc(F)cc1 (stereo not given)	> 100 µM	> 100 µM	> 100 µM	> 100 µM	> 100 µM	> 100 µM	> 100 µM	> 100 µM	> 100 µM											
Cc1cn([C@@H]2C[C@H]2CO)c(=O)[nH]c1=O	> 100 µM		> 100 µM		> 100 µM	> 100 µM	> 100 µM	> 100 µM	> 100 µM	> 100 µM	> 100 µM									
